We go through two compounds from patent US9427398B2, “Parenteral solutions containing metolazone” (Academic Pharmaceuticals Incorporated, priority 2008, dated 2016).

Data set [1] deals with Sprague-Dawley male rats. In words: Diuretic action of parenteral formulations, intraperitoneal administration in rats (24 h urine volume and Na+). Format: in vivo, rat. The note with it: for urine output: 24 h urine, n=6, mean±SD; for urine volume voided over 24 hours compared with placebo: intraperitoneal, furosemide 2, 4, 6 mg/kg (P≦0.01), metolazone 2 mg/kg in 2 different formulations. As for the experimental part: Sprague-Dawley male rats (400 to 500 g) were used for the in vivo experiments. The rats were housed at a controlled temperature (22° C.), fed regularly and had free access to water. Rats were divided into 7 groups with 6 animals per group for the purposes of the study. The rats were deprived of food and water for 24 hours before beginning the study. After this fasting period, normal saline ([…]) was given by oral route. […] All rats were placed in metabolic cages for urine collection. Urine was collected for 24 hours after injection, and the volume measured and the (Na^+) concentration in urine were determined using an ion-specific electrode method, NOVA CRT (NOVA Biomedical, Waltham, Mass.) All data are presented as mean±SD of n observations. For statistical comparison, one-way analysis or variance ANOVA or Student t test was employed. A two-sided P value≦0.05 was considered significant.

For data set [2] the following is noted: cited from earlier work.

`Cc1ccccc1N1C(=O)c2cc(S(N)(=O)=O)c(Cl)cc2NC1C` (stereo not shown) [Metolazone, 7 chloro-1,2,3,4-tetrahydro-2-methyl-3-(-2-methylphenyl)-4-oxo-6-quinazoline sulfonamide]: in data set [1] (2 mg/kg intraperitoneally), the urine output came out at 16 ± 3 mL/day. Also, the “urine volume voided over 24 hours compared with placebo” value in data set [1] is listed as “greater in each instance”. In addition, in data set [2], the solubility in water result is “sparingly soluble”.
For `NS(=O)(=O)c1cc(C(=O)O)c(NCc2ccco2)cc1Cl` [Furosemide, furosemide], the urine output turned out to be 9 ± 1 mL/day in data set [1] (2 mg/kg intraperitoneally), 14 ± 2 mL/day in data set [1] (4 mg/kg intraperitoneally) and 17 ± 2 mL/day in data set [1] (6 mg/kg intraperitoneally). In data set [1], the “urine volume voided over 24 hours compared with placebo” value was “significantly greater”.
